Literature values, collected in patent publication US20250082627A1, “TOBACCO HARM REDUCTION AND PAIN RELIEF PRODUCTS AND METHODS THEREOF” (Ready Mix Naturals, LLC, priority 2023, published 2025).

Tests used:
TRPV2 = target: T1, TRPV2 (Homo sapiens, UniProt Q9Y5S1); conditions: among phytocannabinoids
T1 sequence (Q9Y5S1 1-764): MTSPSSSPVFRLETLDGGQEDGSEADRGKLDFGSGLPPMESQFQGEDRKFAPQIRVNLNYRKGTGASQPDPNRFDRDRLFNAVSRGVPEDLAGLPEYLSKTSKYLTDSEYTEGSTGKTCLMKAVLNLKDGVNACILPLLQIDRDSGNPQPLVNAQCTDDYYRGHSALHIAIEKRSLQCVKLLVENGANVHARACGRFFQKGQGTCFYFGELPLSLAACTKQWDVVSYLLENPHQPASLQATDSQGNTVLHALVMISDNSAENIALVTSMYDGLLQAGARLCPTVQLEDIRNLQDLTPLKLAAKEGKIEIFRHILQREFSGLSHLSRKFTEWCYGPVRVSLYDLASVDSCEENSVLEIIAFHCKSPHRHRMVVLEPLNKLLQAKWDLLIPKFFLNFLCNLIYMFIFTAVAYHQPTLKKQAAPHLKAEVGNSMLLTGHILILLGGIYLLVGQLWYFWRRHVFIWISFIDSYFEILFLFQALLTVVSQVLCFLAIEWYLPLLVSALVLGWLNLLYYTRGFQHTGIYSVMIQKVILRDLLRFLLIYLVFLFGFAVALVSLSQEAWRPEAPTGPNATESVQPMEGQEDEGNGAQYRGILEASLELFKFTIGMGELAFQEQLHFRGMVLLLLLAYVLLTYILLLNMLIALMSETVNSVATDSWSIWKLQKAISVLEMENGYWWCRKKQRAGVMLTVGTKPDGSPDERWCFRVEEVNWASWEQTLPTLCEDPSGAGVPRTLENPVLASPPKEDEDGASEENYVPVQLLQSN

TRPA1 = TRPA1 (Homo sapiens, UniProt O75762)
TRPV1 = TRPV1 (Homo sapiens, UniProt Q8NER1); conditions: among phytocannabinoids
Chain of TRPV1 (Q8NER1 whole entry, species assumed): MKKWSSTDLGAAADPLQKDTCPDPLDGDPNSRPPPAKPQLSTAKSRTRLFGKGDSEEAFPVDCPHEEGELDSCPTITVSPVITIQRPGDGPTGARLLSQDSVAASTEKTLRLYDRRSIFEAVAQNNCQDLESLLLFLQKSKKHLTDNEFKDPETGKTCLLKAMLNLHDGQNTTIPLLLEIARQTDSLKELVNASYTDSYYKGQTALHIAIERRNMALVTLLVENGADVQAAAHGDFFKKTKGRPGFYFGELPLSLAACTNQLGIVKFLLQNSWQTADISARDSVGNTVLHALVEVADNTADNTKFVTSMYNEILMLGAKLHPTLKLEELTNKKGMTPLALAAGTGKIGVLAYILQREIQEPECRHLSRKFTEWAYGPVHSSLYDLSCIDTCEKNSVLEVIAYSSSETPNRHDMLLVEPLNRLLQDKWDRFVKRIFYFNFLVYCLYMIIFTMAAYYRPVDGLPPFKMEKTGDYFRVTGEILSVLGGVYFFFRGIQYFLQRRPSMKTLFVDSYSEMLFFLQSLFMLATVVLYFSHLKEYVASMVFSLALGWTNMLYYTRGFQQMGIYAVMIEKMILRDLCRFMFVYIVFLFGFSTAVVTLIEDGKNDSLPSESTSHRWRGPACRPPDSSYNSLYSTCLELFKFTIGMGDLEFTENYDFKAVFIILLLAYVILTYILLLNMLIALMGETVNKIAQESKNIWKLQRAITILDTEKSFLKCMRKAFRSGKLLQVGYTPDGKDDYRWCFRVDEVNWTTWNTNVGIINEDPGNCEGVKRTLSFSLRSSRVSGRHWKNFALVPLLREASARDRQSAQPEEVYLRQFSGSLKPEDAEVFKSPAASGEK

Chain of TRPA1 (O75762 whole entry, species assumed): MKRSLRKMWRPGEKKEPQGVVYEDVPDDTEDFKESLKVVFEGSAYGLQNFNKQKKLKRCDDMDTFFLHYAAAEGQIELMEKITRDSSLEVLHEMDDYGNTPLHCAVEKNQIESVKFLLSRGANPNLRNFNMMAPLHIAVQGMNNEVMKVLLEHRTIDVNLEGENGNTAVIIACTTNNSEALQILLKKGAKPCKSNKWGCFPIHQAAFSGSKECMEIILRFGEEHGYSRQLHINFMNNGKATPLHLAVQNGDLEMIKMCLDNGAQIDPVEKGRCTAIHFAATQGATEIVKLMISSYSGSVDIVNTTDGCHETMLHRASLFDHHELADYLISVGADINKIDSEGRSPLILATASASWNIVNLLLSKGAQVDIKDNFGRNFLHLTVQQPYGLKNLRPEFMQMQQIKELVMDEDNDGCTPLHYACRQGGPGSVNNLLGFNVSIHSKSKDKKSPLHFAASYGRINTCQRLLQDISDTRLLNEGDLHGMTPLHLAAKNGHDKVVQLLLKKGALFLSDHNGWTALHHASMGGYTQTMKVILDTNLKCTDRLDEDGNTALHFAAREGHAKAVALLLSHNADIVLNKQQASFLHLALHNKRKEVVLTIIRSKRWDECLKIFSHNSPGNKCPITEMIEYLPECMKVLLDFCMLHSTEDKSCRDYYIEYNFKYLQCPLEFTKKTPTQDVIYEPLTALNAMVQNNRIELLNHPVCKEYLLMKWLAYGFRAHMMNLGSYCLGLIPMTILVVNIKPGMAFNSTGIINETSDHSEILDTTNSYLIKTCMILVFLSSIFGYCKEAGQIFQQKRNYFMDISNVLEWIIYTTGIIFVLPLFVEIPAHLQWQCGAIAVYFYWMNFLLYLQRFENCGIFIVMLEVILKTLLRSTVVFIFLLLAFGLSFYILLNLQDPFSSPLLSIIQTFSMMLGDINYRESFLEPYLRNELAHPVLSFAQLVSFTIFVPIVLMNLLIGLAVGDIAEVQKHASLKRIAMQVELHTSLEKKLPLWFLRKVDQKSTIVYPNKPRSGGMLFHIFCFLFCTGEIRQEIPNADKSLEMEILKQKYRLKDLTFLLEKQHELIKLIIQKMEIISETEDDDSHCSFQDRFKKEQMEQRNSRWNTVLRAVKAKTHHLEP

CCCCCc1cc(O)c2c(c1)OC(C)(C)[C@@H]1CCC(C)=C[C@@H]21 [Δ^9-THC, Δ^9-tetrahydrocannabinol]
activation of TRPV2 (TRPV2): most potent phytocannabinoid for activating TRPV2
activation of TRPA1 (TRPA1): also activates TRPA1

CN1CCCC1c1cccnc1 (stereo not shown) [nicotine]
activation of TRPA1 (TRPA1): known activator of TRPA1

C=C(C)[C@@H]1CCC(C)=C[C@H]1c1c(O)cc(CCCCC)cc1O [CBD, cannabidiol]
agonism of TRPV1 (TRPV1): most potent and efficacious phytocannabinoid agonist of TRPV1
